The values below are quoted from earlier work in patent US20120164210A1, “PHOTODYNAMIC THERAPEUTIC AGENT HAVING CELL-SPECIFIC ACTIVE ACCUMULATION PROPERTIES” (The University of Tokyo, priority 2008, published 2012).

The test system of series [1] is tumor tissue. To be noted: in vivo.
The conditions of series [2]: after administration, light shielding required.

Turning to Photofrin, in series [1], the “incorporation into tumor tissue relative to normal tissue” value is listed as “about 4 times”. Besides, the “sunlight hypersensitivity as a complication” value in series [2] was “cause sunlight hypersensitivity”.
